{
  "source": "ChEMBL document CHEMBL3779887",
  "about": "“Robenidine Analogues as Gram-Positive Antibacterial Agents” (J Med Chem, 2016)",
  "key": {"[1]": {"system": "Babesia microti", "assay": "Antiprotozoal activity against Babesia microti ATCC PRA-99 infected in BALB/c mouse assessed as suppression of parasitemia at 25 and 50 mg/kg, administered 4 times daily", "assay_type": "functional"}, "[2]": {"system": "Staphylococcus aureus", "assay": "Antibacterial activity against methicillin-resistant Staphylococcus aureus after 20 to 24 hrs", "assay_type": "functional"}, "[3]": {"system": "Enterococcus", "assay": "Antibacterial activity against vancomycin-resistant Enterococcus after 20 to 24 hrs", "assay_type": "functional"}, "[4]": {"system": "Escherichia coli", "assay": "Antibacterial activity against Escherichia coli ATCC 25922 after 20 to 24 hrs", "assay_type": "functional"}, "[5]": {"system": "Pseudomonas aeruginosa", "assay": "Antibacterial activity against Pseudomonas aeruginosa ATCC 27853 after 20 to 24 hrs", "assay_type": "functional"}, "[6]": {"system": "Staphylococcus aureus", "assay": "Antibacterial activity against methicillin-resistant Staphylococcus aureus clinical isolate after 20 to 24 hrs", "assay_type": "functional"}, "[7]": {"system": "Staphylococcus aureus", "assay": "Bactericidal activity against methicillin-resistant Staphylococcus aureus clinical isolate after 24 and 48 hrs", "assay_type": "functional"}, "[8]": {"system": "Escherichia coli", "assay": "Antibacterial activity against Escherichia coli ATCC 25922 after 20 to 24 hrs in presence of polymyxin B nonapeptide", "assay_type": "functional"}, "[9]": {"system": "Pseudomonas aeruginosa", "assay": "Antibacterial activity against Pseudomonas aeruginosa ATCC 27853 after 20 to 24 hrs in presence of polymyxin B nonapeptide", "assay_type": "functional"}, "[10]": {"system": "Staphylococcus aureus", "assay": "Bactericidal activity against methicillin-sensitive Staphylococcus aureus ATCC 29213 assessed as log reduction in bacterial cell number at 2 times MIC after 8 hrs by time-kill curve analysis", "assay_type": "functional"}, "[11]": {"system": "Staphylococcus aureus", "assay": "Bactericidal activity against methicillin-sensitive Staphylococcus aureus ATCC 29213 assessed as log reduction in bacterial cell number at 4 times MIC after 8 hrs by time-kill curve analysis", "assay_type": "functional"}, "[12]": {"system": "Staphylococcus aureus", "assay": "Bactericidal activity against methicillin-sensitive Staphylococcus aureus ATCC 29213 assessed as log reduction in bacterial cell number at 8 times MIC after 8 hrs by time-kill curve analysis", "assay_type": "functional"}, "[13]": {"system": "Staphylococcus aureus", "assay": "Bactericidal activity against methicillin-sensitive Staphylococcus aureus clinical isolate USA300 assessed as log reduction in bacterial cell number at MIC after 8 hrs by time-kill curve analysis", "assay_type": "functional"}, "[14]": {"system": "Staphylococcus aureus", "assay": "Bactericidal activity against […] Staphylococcus aureus clinical isolate USA300 assessed as log reduction in bacterial cell number at 2 times MIC after 8 hrs by time-kill curve analysis", "assay_type": "functional"}, "[15]": {"system": "Staphylococcus aureus", "assay": "Bactericidal activity against […] Staphylococcus aureus clinical isolate USA300 assessed as log reduction in bacterial cell number at 4 times MIC after 8 hrs by time-kill curve analysis", "assay_type": "functional"}, "[16]": {"system": "Staphylococcus aureus", "assay": "Bactericidal activity against […] Staphylococcus aureus clinical isolate USA300 assessed as log reduction in bacterial cell number at 8 times MIC after 8 hrs by time-kill curve analysis", "assay_type": "functional"}, "[17]": {"system": "Staphylococcus aureus", "assay": "Bactericidal activity against Methicillin-sensitive Staphylococcus aureus ATCC 29213 assessed as log reduction in bacterial cell number at 2 times MIC after 24 hrs by time kill curve analysis", "assay_type": "functional, organism-based"}, "[18]": {"system": "Staphylococcus aureus", "assay": "Bactericidal activity against Methicillin-sensitive Staphylococcus aureus ATCC 29213 assessed as log reduction in bacterial cell number at 4 times MIC after 24 hrs by time kill curve analysis", "assay_type": "functional, organism-based"}, "[19]": {"system": "Staphylococcus aureus", "assay": "Bactericidal activity against Methicillin-sensitive Staphylococcus aureus ATCC 29213 assessed as log reduction in bacterial cell number at 8 times MIC after 24 hrs by time-kill curve analysis", "assay_type": "functional, organism-based"}, "[20]": {"system": "Staphylococcus aureus", "assay": "Bactericidal activity against […] Staphylococcus aureus clinical isolate USA300 assessed as log reduction in bacterial cell number at 2 times MIC after 24 hrs by time-kill curve analysis", "assay_type": "functional, organism-based"}, "[21]": {"system": "Staphylococcus aureus", "assay": "Bactericidal activity against […] Staphylococcus aureus clinical isolate USA300 assessed as log reduction in bacterial cell number at 4 times MIC after 24 hrs by time-kill curve analysis", "assay_type": "functional, organism-based"}, "[22]": {"system": "Staphylococcus aureus", "assay": "Bactericidal activity against […] Staphylococcus aureus clinical isolate USA300 assessed as log reduction in bacterial cell number at 8 times MIC after 24 hrs by time-kill curve analysis", "assay_type": "functional, organism-based"}, "[23]": {"system": "Staphylococcus aureus", "assay": "Inhibition of biofilm formation in methicillin-resistant Staphylococcus aureus after 24 hrs by MBEC assay", "assay_type": "functional"}, "[24]": {"system": "Staphylococcus aureus", "assay": "Inhibition of biofilm formation in methicillin-resistant Staphylococcus aureus assessed as log reduction at > 43.2 uM after 24 hrs by MBEC assay relative to control", "assay_type": "functional"}, "[25]": {"assay": "Cytotoxicity against human HEL299 cells after 24 hrs by WST-1 based colorimetric assay", "assay_type": "cell-based, HEL 299"}, "[26]": {"assay": "Lipophilicity, logD of the compound at pH 3", "assay_type": "physicochemical", "conditions": "buffer"}, "[27]": {"assay": "Solubility of the compound at pH 6.5", "assay_type": "physicochemical", "conditions": "buffer"}, "[28]": {"assay": "Intrinsic clearance in human liver microsomes assessed per mg of protein", "assay_type": "ADME", "conditions": "read-out: CLH"}, "[29]": {"assay": "Intrinsic clearance in mouse liver microsomes assessed per mg of protein", "assay_type": "ADME", "conditions": "read-out: CLH"}, "[30]": {"assay": "Metabolic stability in human liver microsomes assessed as compound loss after 60 mins", "assay_type": "ADME", "conditions": "read-out: Drug degradation"}, "[31]": {"assay": "Toxicity in po dosed male rabbit", "assay_type": "organism-based, Oryctolagus cuniculus", "conditions": "in vivo"}, "[32]": {"assay": "Selectivity index, ratio of GI50 for human HEL299 cells to MIC50 for methicillin-resistant Staphylococcus aureus clinical isolate", "assay_type": "functional, HEL 299"}, "[33]": {"assay": "Selectivity index, ratio of GI50 for human HepG2 cells to MIC50 for methicillin-sensitive Staphylococcus aureus clinical isolate", "assay_type": "functional"}, "[34]": {"system": "Staphylococcus aureus", "assay": "Antibacterial activity against methicillin-sensitive Staphylococcus aureus ATCC 6538 after 20 to 24 hrs", "assay_type": "functional"}, "[35]": {"system": "Staphylococcus aureus", "assay": "Antibacterial activity against methicillin-sensitive Staphylococcus aureus ATCC 49775 after 20 to 24 hrs", "assay_type": "functional"}, "[36]": {"system": "Staphylococcus aureus", "assay": "Antibacterial activity against methicillin-sensitive Staphylococcus aureus ATCC 29213 after 20 to 24 hrs", "assay_type": "functional"}, "[37]": {"system": "Staphylococcus aureus", "assay": "Antibacterial activity against methicillin-sensitive Staphylococcus aureus ATCC 6538 after 20 to 24 hrs in presence of 50% heat inactivated bovine serum", "assay_type": "functional"}, "[38]": {"system": "Staphylococcus aureus", "assay": "Antibacterial activity against methicillin-sensitive Staphylococcus aureus ATCC 49775 after 20 to 24 hrs in presence of 50% heat inactivated bovine serum", "assay_type": "functional"}, "[39]": {"system": "Staphylococcus aureus", "assay": "Antibacterial activity against methicillin-sensitive Staphylococcus aureus ATCC 29213 after 20 to 24 hrs in presence of 50% heat inactivated bovine serum", "assay_type": "functional"}, "[40]": {"system": "Staphylococcus aureus", "assay": "Bactericidal activity against methicillin-sensitive Staphylococcus aureus ATCC 25923 after 24 and 48 hrs", "assay_type": "functional"}, "[41]": {"system": "Staphylococcus aureus", "assay": "Bactericidal activity against methicillin-sensitive Staphylococcus aureus ATCC 29213 after 24 and 48 hrs", "assay_type": "functional"}, "[42]": {"system": "Staphylococcus aureus", "assay": "Ratio of MBC for methicillin-sensitive Staphylococcus aureus ATCC 25923 to MIC90 for methicillin-sensitive Staphylococcus aureus ATCC 25923", "assay_type": "functional"}, "[43]": {"system": "Staphylococcus aureus", "assay": "Ratio of MBC for methicillin-sensitive Staphylococcus aureus ATCC 6538 to MIC90 for methicillin-sensitive Staphylococcus aureus ATCC 6538", "assay_type": "functional"}, "[44]": {"system": "Staphylococcus aureus", "assay": "Ratio of MBC for methicillin-sensitive Staphylococcus aureus ATCC 49775 to MIC90 for methicillin-sensitive Staphylococcus aureus ATCC 49775", "assay_type": "functional"}, "[45]": {"system": "Staphylococcus aureus", "assay": "Ratio of MBC for methicillin-sensitive Staphylococcus aureus ATCC 29213 to MIC90 for methicillin-sensitive Staphylococcus aureus ATCC 29213", "assay_type": "functional"}, "[46]": {"system": "Staphylococcus aureus", "assay": "Antibacterial activity against methicillin-sensitive Staphylococcus aureus ATCC 29213 after 20 to 24 hrs in presence of 50% heat inactivated bovine serum"}},
  "note": "Active and inactive are the calls of the source. No cut-off for these calls is given here.",
  "data": [
    {"smiles": "N=C(N/N=C/c1ccc(Cl)cc1)N/N=C/c1ccc(Cl)cc1", "note": "[ROBENIDINE]", "values": [
      {"measurement": "inhibition (INH)", "setting": "[1]", "result": 100, "unit": "%"},
      {"measurement": "MIC", "setting": "[2]", "result": 8.1, "unit": "µM"},
      {"measurement": "MIC", "setting": "[3]", "result": 4.7, "unit": "µM"},
      {"measurement": "MIC", "setting": "[4]", "result": "> 400", "unit": "µM"},
      {"measurement": "MIC", "setting": "[5]", "result": "> 400", "unit": "µM"},
      {"measurement": "MIC90", "setting": "[6]", "result": 5.4, "unit": "µM"},
      {"measurement": "MBC", "setting": "[7]", "result": 5.4, "unit": "µM"},
      {"measurement": "MIC90", "setting": "[8]", "result": 21.6, "unit": "µM"},
      {"measurement": "MIC90", "setting": "[9]", "result": 21.6, "unit": "µM"},
      {"measurement": "Activity", "setting": "[10]", "result": ">=4 log10CFU/ml"},
      {"measurement": "Activity", "setting": "[11]", "result": ">=4 log10CFU/ml"},
      {"measurement": "Activity", "setting": "[12]", "result": ">=4 log10CFU/ml"},
      {"measurement": "Activity", "setting": "[13]", "result": ">=4 log10CFU/ml"},
      {"measurement": "Activity", "setting": "[14]", "result": ">=4 log10CFU/ml"},
      {"measurement": "Activity", "setting": "[15]", "result": ">=4 log10CFU/ml"},
      {"measurement": "Activity", "setting": "[16]", "result": ">=4 log10CFU/ml"},
      {"measurement": "Activity", "setting": "[17]", "result": "inactive"},
      {"measurement": "Activity", "setting": "[18]", "result": "inactive"},
      {"measurement": "Activity", "setting": "[19]", "result": "inactive"},
      {"measurement": "Activity", "setting": "[20]", "result": "inactive"},
      {"measurement": "Activity", "setting": "[21]", "result": "inactive"},
      {"measurement": "Activity", "setting": "[22]", "result": "inactive"},
      {"measurement": "INH", "setting": "[23]", "result": ">43.2", "unit": "µM"},
      {"measurement": "FC", "setting": "[24]", "result": "<=3"},
      {"measurement": "GI50 at 24 h", "setting": "[25]", "result": 17.7, "unit": "µM"},
      {"measurement": "logD", "setting": "[26]", "result": 3.7},
      {"measurement": "solubility", "setting": "[27]", "result": "< 1.6", "unit": "µg/mL"},
      {"measurement": "microsomal CLint", "setting": "[28]", "result": "< 7", "unit": "µL/min/mg"},
      {"measurement": "microsomal CLint", "setting": "[29]", "result": "< 7", "unit": "µL/min/mg"},
      {"measurement": "metabolised at 1 h", "setting": "[30]", "result": "< 15", "unit": "%"},
      {"measurement": "LD50", "setting": "[31]", "result": 1500, "unit": "mg/kg"},
      {"measurement": "Selectivity Index", "setting": "[32]", "result": 2},
      {"measurement": "Selectivity Index", "setting": "[33]", "result": 2},
      {"measurement": "MIC90", "setting": "[34]", "result": 5.4, "unit": "µM"},
      {"measurement": "MIC90", "setting": "[35]", "result": 5.4, "unit": "µM"},
      {"measurement": "MIC90", "setting": "[36]", "result": 5.4, "unit": "µM"},
      {"measurement": "MIC90", "setting": "[37]", "result": "> 250", "unit": "µM"},
      {"measurement": "MIC90", "setting": "[38]", "result": "> 250", "unit": "µM"},
      {"measurement": "MIC90", "setting": "[39]", "result": "> 250", "unit": "µM"},
      {"measurement": "MBC", "setting": "[40]", "result": 5.4, "unit": "µM"},
      {"measurement": "MBC", "setting": "[41]", "result": 5.4, "unit": "µM"},
      {"measurement": "Ratio", "setting": "[42]", "result": 1},
      {"measurement": "Ratio", "setting": "[43]", "result": 1},
      {"measurement": "Ratio", "setting": "[44]", "result": 1},
      {"measurement": "Ratio", "setting": "[45]", "result": 1},
      {"measurement": "MIC90", "setting": "[46]", "result": "> 250", "unit": "µM"}
    ]}
  ]
}
